Columns and labels:
mature miR-21 = experiment: RT-qPCR of mature miR-21 in CRISPR-Control sgRNA MDA-MB-231 cells; format: cell-based; settings: 5 μM, 48 h treatment, RNase L expressed
Protocol: Two CRISPR-modified MDA-MB-231 cell lines with either a scrambled control guide RNA (“Control sgRNA”; RNase L is expressed) or with an RNase L-targeting guide RNA (“RNase L-Targeting sgRNA”; RNase L protein abundance is knocked down) were used to complete these studies.
MDA-MB-231 cells were treated with compound (0.1% DMSO final concentration) for 24 h, followed by removal of the compound-containing medium and redosing in growth medium for an additional 24 h (total treatment period of 48 h), with the exception of invasion assays in which the cells were treated overnight. For the time-course experiment, MDA-MB-231 cells were treated for the indicated lengths of time. MCF-10A cells, also used in invasion assays, were treated with compound overnight (0.1% DMSO final concentration).
RNA Isolation and Quantitative Real-Time Polymerase Chain Reaction (RT-qPCR). MDAMB-231 cells were cultured as described in “Cell Culture.” After compound treatment, total RNA was extracted using a Quick-RNA Miniprep Kit (Zymo) per the manufacturer's instructions. […] RT-qPCR was performed on a QuantStudio5™ Real-Time PCR Instrument (Applied Biosystems) using Power SYBR Green Master Mix (Applied Biosystems), and the resulting data were analyzed using the ΔΔCt method.

pre-miR-21 = experiment: Binding affinity measurement by intrinsic fluorescence; settings: WT pre-miR-21
Protocol: Binding Affinity Measurements. Binding assays were completed as previously described.8 Briefly, WT pre-miR-21 (5′-[…]-3′) or a mutant pre-miR-21 with the A-bulge and U-bulges replaced with base pairs (5′-[…]-3′) was folded in 1× Assay Buffer (8 mM Na2HPO4, pH 7.0, 185 mM NaCl, and 1 mM EDTA) by heating at 95° C. for 1 min followed by cooling on ice for 10 min. After cooling, BSA was added to a final concentration of 40 μg/mL. RiboTAC 7 was then added to the solution to a final concentration of 0.5 μM. The RNA solution was serial diluted with 1× Assay Buffer supplemented with 40 μg/mL BSA and 0.5 μM of 7. The solutions were incubated in the dark for 30 min at room temperature before being transferred to a black 384-well plate (Corning 4514, low-volume, non-binding) Fluorescence intensity was measured using a Tecan infinite M1000 Pro (Gain: 100) with excitation wavelength of 380 nm and emission wavelength of 425 nm. Binding affinity was calculated using Equation 1, as previously described:8
where I and I0 are the measured fluorescence intensity of compound with or without RNA, respectively, Δε is the difference between the fluorescence intensity with infinite concentration of RNA versus without RNA, [FL]0 and [RNA]0 are the concentrations of small molecule and RNA, respectively, and Kd is the dissociation constant.

MDA-MB-231 cells = experiment: RiboTAC cellular uptake quantification; format: in vitro ADME
Protocol: A time-course for RiboTAC degradation of pre-miR-21 was completed and compared to its cellular permeability. […] Additionally, degradation of pre-miR-21 is first detectable after 48 h of treatment with 7 (FIG. 10B).
RiboTAC Cellular Uptake Quantification. MDA-MB-231 cells were cultured as described in “Cell Culture” with a final cell density of 13,500 cells per well. Cells were treated with 7 (5 μM) for 0, 0.25, 0.5, 0.75, 1, 2, 3, 6, 12, 24, and 48 hours. Following treatment, cells were rapidly washed with 1×PBS to remove any unincorporated compound. Cells were then detached using 75 μl trypsin, immediately homogenized and flash frozen. The cell homogenate was analyzed using a Sciex 6500 mass spectrometer operated in multiple reaction monitoring mode with the transition m/z=1078.3/900.3. Homogenate drug levels were determined by comparison to a standard curve prepared in untreated cell homogenate. Calculated concentrations, (ng drug)/(ml homogenate) or μM drug inside cell, were fit to a one-phase association model using GraphPad Prism.

[1] = biological target: T1, pre-miR-21 mutant and RNase L (Homo sapiens, UniProt Q05823, H672N); experiment: Co-immunoprecipitation of mutant pre-miR-21 and RNase L; format: binding; settings: base paired mutant pre-miR-21, inactive RNase L
T1 construct: GST (N, cleaved yes); made in house; host or cells: BL21 AI Escherichia coli
T1 sequence (Q05823 1-741 H672N): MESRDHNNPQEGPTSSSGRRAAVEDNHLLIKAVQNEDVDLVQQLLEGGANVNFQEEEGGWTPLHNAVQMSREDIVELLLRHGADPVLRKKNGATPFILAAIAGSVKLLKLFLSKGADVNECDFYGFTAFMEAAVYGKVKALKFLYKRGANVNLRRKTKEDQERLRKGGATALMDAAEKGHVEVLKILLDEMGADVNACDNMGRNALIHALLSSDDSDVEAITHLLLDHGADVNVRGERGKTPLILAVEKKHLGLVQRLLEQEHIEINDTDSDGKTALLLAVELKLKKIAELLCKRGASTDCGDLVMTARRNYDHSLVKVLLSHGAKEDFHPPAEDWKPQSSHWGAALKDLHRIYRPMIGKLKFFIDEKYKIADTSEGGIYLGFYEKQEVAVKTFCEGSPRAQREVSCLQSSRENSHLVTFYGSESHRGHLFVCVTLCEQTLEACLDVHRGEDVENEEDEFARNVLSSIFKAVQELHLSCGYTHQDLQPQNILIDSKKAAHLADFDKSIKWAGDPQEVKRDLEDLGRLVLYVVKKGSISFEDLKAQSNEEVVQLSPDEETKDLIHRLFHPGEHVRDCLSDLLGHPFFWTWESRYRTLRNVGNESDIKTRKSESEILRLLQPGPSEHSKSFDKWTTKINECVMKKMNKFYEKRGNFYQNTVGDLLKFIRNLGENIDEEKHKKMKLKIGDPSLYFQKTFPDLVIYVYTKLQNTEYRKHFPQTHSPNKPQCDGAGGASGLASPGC
Protocol: Co-Immunoprecipitation of pre-miR-2I and RNase L. Approximately 20,000 cpm of 32P 5′-end labeled WT or mutant pre-miR-21 or an RNA construct where the A-bulge was mutated to a base pair (5′-[…] UGGGCUGU-3′) was folded in 1× RNase L Assay Buffer for 1 min at 95° C. and cooled on ice for 10 min. Following cooling, β-mercaptoethanol (7 mM), ATP (50 μM), and MgCl2 (1 mM) were added to the solution. The solution was aliquoted, and compounds were incubated in solution for 15 min (1% DMSO final concentration). […] Beads were then washed with 1×PBS supplemented with 0.02% (v/v) Tween-20. Radioactive signal in the supernatant and associated with the beads was quantified by a Beckman Coulter LS6500 Liquid Scintillation Counter. Relative RNA enrichment was calculated by comparing the radioactive signal associated with beads compared to the total radioactive signal from the beads plus the supernatant.

## CNC(=O)[C@H](c1ccccc1)N(C)Cc1ccc(-c2cccc(-c3sccc3NC(=O)CCOCCOCCOCCC(=O)NCCN3CCN(c4ccc5nc(-c6c(N)c7c(F)cccc7[nH]c6=O)[nH]c5c4)CC3)c2)cc1 [RiboTAC 7, (S)—N-(2-(4-(2-(4-amino-5-fluoro-2-oxo-1,2-dihydroquinolin-3-yl)-1H-benzo[d]imidazol-6-yl)piperazin-1-yl)ethyl)-3-(2-(2-(3-((2-(4′-((methyl(2-(methylamino)-2-oxo-1-phenylethyl)amino)methyl)-[1,1′-biphenyl]-3-yl)thiophen-3-yl)amino)-3-oxopropoxy)ethoxy)ethoxy)propanamide]
Mature miR-21
  reduction of mature miR-21 abundance: ~40%
pre-miR-21
  Kd: 4.6 ± 2.1 µM
MDA-MB-231 cells; 5 μM in culture medium
  time to reach plateau of cellular accumulation: about 8 h
MDA-MB-231 cells; after 48 h treatment with 5 μM in culture medium
  concentration inside cells: 3.6 ± 1.2 µM
[1]
  co-immunoprecipitation of RNA with RNase L: not its base paired mutant

— patent US20260167614A1, “IDENTIFICATION OF SMALL MOLECULES THAT RECRUIT AND ACTIVATE RNASE L” (UNIVERSITY OF FLORIDA RESEARCH FOUNDATION, INCORPORATED, priority 2022, published 2026)
